From patent publication US10100049B2, “JAK kinase inhibitor compounds for treatment of respiratory disease” (THERAVANCE BIOPHARMA R&D IP, LLC, priority 2015, dated 2018)
Where two headings read alike, the source gives them in different places.

Tests used:
JAK1 = JAK1 (Homo sapiens (Human), UniProt P23458); assay: LanthaScreen JAK biochemical assay (JAK1); conditions: for fold less potent than the corresponding compound of the invention in the enzyme assay: JAK1 enzyme assay
[1] = system: IL-13 induced pSTAT6 in lung tissue; assay: Murine model of IL-13 induced pSTAT6 induction in lung tissue; format: in vivo; conditions: mouse lung; for factor by which lung concentration was smaller than that of the corresponding compound of the invention: pharmacodynamic assay; for inhibition in vivo at 500 µg/mL: 0.5 mg/mL, 50 μL oral aspiration, IL-13 challenge 4 h after dosing, lungs collected 1 h later, read-out: pSTAT6 inhibition Assay 5
Procedure: Il-13 is an important cytokine underlying the pathophysiology of asthma (Kudlacz et al. Eur. J. Pharmacol, 2008, 582, 154-161). IL-13 binds to cell surface receptors activating members of the Janus family of kinases (JAK) which then phosphorylate STAT6 and subsequently activates further transcription pathways. In the described model, a dose of IL-13 was delivered locally into the lungs of mice to induce the phosphorylation of STAT6 (pSTAT6) which is then measured as the endpoint.
Adult balb/c mice from Harlan were used in the assay. On the day of study, animals were lightly anesthetized with isoflurane and administered either vehicle or test compound (0.5 mg/mL, 50 μL total volume over several breaths) via oral aspiration. Animals were placed in lateral recumbency post dose and monitored for full recovery from anesthesia before being returned to their home cage. Four hours later, animals were once again briefly anesthetized and challenged with either vehicle or IL-13 (0.03 μg total dose delivered, 50 μL total volume) via oral aspiration before being monitored for recovery from anesthesia and returned to their home cage. One hour after vehicle or IL-13 administration, lungs were collected for both pSTAT6 detection using an anti-pSTAT6 ELISA (rabbit mAb capture/coating antibody; mouse mAb detection/report antibody: anti-pSTAT6-pY641; secondary antibody: anti-mouse IgG-HRP) and analyzed for total drug concentration as described above in Assay 4.
Selected compounds of the invention were tested in the assay. Activity in the model is evidenced by a decrease in the level of pSTAT6 present in the lungs of treated animals at 5 hours compared to the vehicle treated, IL-13 challenged control animals. The difference between the control animals which were vehicle-treated, IL-13 challenged and the control animals which were vehicle-treated, vehicle challenged dictated the 0% and 100% inhibitory effect, respectively, in any given experiment.

[2] = system: IL-13 induced STAT6 phosphorylation in BEAS-2B human lung epithelial cells; assay: AlphaScreen cellular potency assay, IL-13 induced STAT6 phosphorylation in BEAS-2B cells; format: cell-based; conditions: for IC50: Homo sapiens
Procedure: The AlphaScreen JAM cellular potency assay was carried out by measuring interleukin-13 (IL-13, R&D Systems) induced STAT6 phosphorylation in BEAS-2B human lung epithelial cells (ATCC). The anti-STAT6 antibody (Cell Signaling Technologies) was conjugated to AlphaScreen acceptor beads (Perkin Elmer), while the anti-pSTAT6 (pTyr641) antibody (Cell Signaling Technologies) was biotinylated using EZ-Link Sulfo-NHS-Biotin (Thermo Scientific).
BEAS-2B cells were grown at 37° C. in a 5% CO2 humidified incubator in 50% DMEM/50% F-12 medium (Life Technologies) supplemented with 10% FBS (Hyclone), 100 U/mL penicillin, 100 μg/mL streptomycin (Life Technologies), and 2 mM GlutaMAX (Life Technologies). On day 1 of the assay, cells were seeded at a 7,500 cells/well density in white poly-D-lysine-coated 384-well plates (Corning) with 25 μL medium, and were allowed to adhere overnight in the incubator. On day 2 of the assay, the medium was removed and replaced with 12 μL of assay buffer (Hank's Balanced Salt Solution/HBSS, 25 mM HEPES, and 1 mg/ml bovine serum albumin/BSA) containing dose-responses of test compounds. Compounds were serially diluted in DMSO and then diluted another 1000-fold in media to bring the final DMSO concentration to 0.1%. Cells were incubated with test compounds at 37° C. for 1 h, and followed by the addition of 12 μl of pre-warmed IL-13 (80 ng/ml in assay buffer) for stimulation. After incubating at 37° C. for 30 min, the assay buffer (containing compound and IL-13) was removed, and 10 μl of cell lysis buffer (25 mM HEPES, 0.1% SDS, 1% NP-40, 5 mM MgCl2, 1.3 mM EDTA, 1 mM EGTA, and supplement with Complete Ultra mini protease inhibitors and PhosSTOP from Roche Diagnostics). The plates were shaken at ambient temperature for 30 min before the addition of detection reagents. A mixture of biotin-anti-pSTAT6 and anti-STAT6 conjugated acceptor beads was added first and incubated at ambient temperature for 2 h, followed by the addition of streptavidin conjugated donor beads (Perkin Elmer). After a minimum of 2 h incubation, the assay plates were read on the EnVision plate reader.
Results were expressed as the negative logarithm of the IC50 value, pIC50.

[3] = Dynamic moisture sorption assessment; format: physicochemical
Procedure: Dynamic moisture sorption (DMS) measurement was performed using a VTI atmospheric microbalance, SGA-100 system (VTI Corp., Hialeah, Fla. 33016). A weighed sample was used and the humidity was lowest possible value (close to 0% RH) at the start of the analysis. The DMS analysis consisted of an initial drying step (˜0% RH) for 120 minutes, followed by two cycles of sorption and desorption with a scan rate of 5% RH/step over the humidity range of 5% RH to 90% RH. The DMS run was performed isothermally at 25° C.

[4] = Pharmacokinetics in plasma and lung in mouse; format: in vivo; conditions: oral aspiration 0.2 mg/mL 50 uL, lung AUC (μg hr/g) / plasma AUC (μg hr/mL)
Procedure: Plasma and lung levels of test compounds and ratios thereof were determined in the following manner. BALB/c mice from Charles River Laboratories were used in the assay. Test compounds were individually formulated in 20% propylene glycol in pH 4 citrate buffer at a concentration of 0.2 mg/mL and 50 uL of the dosing solution was introduced into the trachea of a mouse by oral aspiration. At various time points (typically 0.167, 2, 6, 24 hr) post dosing, blood samples were removed via cardiac puncture and intact lungs were excised from the mice. Blood samples were centrifuged (Eppendorf centrifuge, 5804R) for 4 minutes at approximately 12,000 rpm at 4° C. to collect plasma. Lungs were padded dry, weighed, and homogenized at a dilution of 1:3 in sterile water. Plasma and lung levels of test compound were determined by LC-MS analysis against analytical standards constructed into a standard curve in the test matrix. A lung to plasma ratio was determined as the ratio of the lung AUC in μg hr/g to the plasma AUC in μg hr/mL, where AUC is conventionally defined as the area under the curve of test compound concentration vs. time.

Tyk2 = Tyk2 (Homo sapiens (Human), UniProt P29597); assay: LanthaScreen JAK biochemical assay (Tyk2); conditions: read-out: Tyk 2 (PKi); further: ATP at Km 10 µM
Chain of Tyk2 (P29597 whole entry): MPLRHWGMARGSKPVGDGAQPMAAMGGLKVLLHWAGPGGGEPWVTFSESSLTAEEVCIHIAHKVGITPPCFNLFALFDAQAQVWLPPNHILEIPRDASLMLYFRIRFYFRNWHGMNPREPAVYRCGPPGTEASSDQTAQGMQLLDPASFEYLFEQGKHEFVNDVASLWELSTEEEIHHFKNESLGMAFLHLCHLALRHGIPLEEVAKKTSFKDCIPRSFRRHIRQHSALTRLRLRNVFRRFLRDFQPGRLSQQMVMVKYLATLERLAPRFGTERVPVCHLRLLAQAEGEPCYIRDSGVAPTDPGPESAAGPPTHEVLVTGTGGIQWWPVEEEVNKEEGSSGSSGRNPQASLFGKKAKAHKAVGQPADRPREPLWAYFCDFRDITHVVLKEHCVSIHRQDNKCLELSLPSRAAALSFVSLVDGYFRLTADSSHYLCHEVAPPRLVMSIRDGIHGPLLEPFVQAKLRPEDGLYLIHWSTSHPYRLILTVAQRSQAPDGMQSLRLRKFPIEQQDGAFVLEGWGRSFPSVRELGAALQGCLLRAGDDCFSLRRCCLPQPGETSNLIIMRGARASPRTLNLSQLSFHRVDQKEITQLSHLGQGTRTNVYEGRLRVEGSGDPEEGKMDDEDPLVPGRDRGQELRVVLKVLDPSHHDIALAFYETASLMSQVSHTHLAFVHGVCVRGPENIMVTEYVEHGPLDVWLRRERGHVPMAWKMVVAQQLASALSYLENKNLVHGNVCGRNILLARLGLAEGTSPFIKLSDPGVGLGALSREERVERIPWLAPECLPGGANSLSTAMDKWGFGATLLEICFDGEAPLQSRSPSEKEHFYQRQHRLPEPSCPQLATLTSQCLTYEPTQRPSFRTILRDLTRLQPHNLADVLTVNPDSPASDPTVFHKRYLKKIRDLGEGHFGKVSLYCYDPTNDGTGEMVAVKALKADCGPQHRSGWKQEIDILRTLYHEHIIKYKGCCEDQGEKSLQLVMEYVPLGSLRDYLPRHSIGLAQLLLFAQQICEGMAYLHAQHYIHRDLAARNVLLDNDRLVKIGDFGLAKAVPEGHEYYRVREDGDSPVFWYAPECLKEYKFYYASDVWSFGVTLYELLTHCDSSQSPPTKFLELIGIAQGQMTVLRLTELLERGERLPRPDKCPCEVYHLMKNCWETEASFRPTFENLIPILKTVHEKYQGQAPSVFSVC

JAK3 = JAK3 (Homo sapiens (Human), UniProt P52333); assay: LanthaScreen JAK biochemical assay (JAK3); conditions: ATP at Km 1.6 μM; read-out: JAK 3 (pKi) (converted)
Chain of JAK3 (P52333 whole entry): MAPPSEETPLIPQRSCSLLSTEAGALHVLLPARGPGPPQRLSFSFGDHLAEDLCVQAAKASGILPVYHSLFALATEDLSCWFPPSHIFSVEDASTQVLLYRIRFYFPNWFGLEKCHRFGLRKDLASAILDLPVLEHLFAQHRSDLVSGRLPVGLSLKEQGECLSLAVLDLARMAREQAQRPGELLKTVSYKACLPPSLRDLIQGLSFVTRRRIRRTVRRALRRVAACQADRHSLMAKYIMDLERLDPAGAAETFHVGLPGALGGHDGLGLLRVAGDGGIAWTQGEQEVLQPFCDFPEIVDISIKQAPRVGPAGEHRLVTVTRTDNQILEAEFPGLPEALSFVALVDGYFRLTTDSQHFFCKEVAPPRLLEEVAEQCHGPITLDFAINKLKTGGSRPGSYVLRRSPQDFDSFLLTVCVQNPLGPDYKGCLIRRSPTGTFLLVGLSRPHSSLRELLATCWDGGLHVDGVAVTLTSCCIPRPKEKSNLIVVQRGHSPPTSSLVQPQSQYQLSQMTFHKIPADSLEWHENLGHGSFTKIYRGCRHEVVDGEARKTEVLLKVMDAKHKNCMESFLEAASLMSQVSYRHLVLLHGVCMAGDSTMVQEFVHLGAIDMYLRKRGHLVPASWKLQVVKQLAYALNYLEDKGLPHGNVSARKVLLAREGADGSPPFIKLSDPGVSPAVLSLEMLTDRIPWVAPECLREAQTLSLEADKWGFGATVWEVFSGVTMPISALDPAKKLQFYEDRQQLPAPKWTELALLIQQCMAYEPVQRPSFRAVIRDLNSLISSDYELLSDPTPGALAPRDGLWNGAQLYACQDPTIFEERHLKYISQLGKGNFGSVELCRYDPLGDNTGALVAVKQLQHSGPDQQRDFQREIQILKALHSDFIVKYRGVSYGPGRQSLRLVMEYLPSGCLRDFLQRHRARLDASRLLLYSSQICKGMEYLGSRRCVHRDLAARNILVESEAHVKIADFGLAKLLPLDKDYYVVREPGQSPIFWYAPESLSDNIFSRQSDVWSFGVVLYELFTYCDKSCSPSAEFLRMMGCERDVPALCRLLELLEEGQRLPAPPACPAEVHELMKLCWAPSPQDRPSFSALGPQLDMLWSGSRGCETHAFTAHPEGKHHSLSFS

[5] = system: Alternaria-induced BALF eosinophils; assay: Murine model of Alternaria alternata-induced eosinophilic inflammation of the lung; format: in vivo; conditions: mouse; maximum statistically significant inhibition; 0.1-1.0 mg/mL, 50 μL oropharyngeal aspiration; BALF 48 h after alternaria
Procedure: Airway eosinophilia is a hallmark of human asthma. Alternaria alternata is a fungal aeroallergen that can exacerbate asthma in humans and induces eosinophilic inflammation in the lungs of mice (Havaux et al. Clin Exp Immunol. 2005, 139(2):179-88).
Seven- to nine-week old male C57 mice from Taconic were used in the study. On the day of study, animals were lightly anesthetized with isoflurane and administered either vehicle or test compound (0.1-1.0 mg/mL, 50 μL total volume over several breaths) via oropharyngeal aspiration. Animals were placed in lateral recumbency post dose and monitored for full recovery from anesthesia before being returned to their home cage. One hour later, animals were once again briefly anesthetized and challenged with either vehicle or alternaria extract (200 ug total extract delivered, 50 μL total volume) via oropharyngeal aspiration before being monitored for recovery from anesthesia and returned to their home cage. Forty-eight hours after alternaria administration, bronchoalveolar lavage fluid (BALF) was collected and eosinophils were counted in the BALF using the Advia 120 Hematology System (Siemens).
Selected compounds of the invention were tested in this alternaria assay. Activity in the model is evidenced by a decrease in the level of eosinophils present in the BALF of treated animals at forty-eight hours compared to the vehicle treated, alternaria challenged control animals. Data are expressed as percent inhibition of the vehicle treated, alternaria challenged BALF eosinophils response. To calculate percent inhibition, the number of BALF eosinophils for each condition is converted to percent of the average vehicle treated, alternaria challenged BALF eosinophils and subtracted from one-hundred percent.

JAK2 = JAK2 (Homo sapiens (Human), UniProt O60674)
Chain of JAK2 (O60674 whole entry): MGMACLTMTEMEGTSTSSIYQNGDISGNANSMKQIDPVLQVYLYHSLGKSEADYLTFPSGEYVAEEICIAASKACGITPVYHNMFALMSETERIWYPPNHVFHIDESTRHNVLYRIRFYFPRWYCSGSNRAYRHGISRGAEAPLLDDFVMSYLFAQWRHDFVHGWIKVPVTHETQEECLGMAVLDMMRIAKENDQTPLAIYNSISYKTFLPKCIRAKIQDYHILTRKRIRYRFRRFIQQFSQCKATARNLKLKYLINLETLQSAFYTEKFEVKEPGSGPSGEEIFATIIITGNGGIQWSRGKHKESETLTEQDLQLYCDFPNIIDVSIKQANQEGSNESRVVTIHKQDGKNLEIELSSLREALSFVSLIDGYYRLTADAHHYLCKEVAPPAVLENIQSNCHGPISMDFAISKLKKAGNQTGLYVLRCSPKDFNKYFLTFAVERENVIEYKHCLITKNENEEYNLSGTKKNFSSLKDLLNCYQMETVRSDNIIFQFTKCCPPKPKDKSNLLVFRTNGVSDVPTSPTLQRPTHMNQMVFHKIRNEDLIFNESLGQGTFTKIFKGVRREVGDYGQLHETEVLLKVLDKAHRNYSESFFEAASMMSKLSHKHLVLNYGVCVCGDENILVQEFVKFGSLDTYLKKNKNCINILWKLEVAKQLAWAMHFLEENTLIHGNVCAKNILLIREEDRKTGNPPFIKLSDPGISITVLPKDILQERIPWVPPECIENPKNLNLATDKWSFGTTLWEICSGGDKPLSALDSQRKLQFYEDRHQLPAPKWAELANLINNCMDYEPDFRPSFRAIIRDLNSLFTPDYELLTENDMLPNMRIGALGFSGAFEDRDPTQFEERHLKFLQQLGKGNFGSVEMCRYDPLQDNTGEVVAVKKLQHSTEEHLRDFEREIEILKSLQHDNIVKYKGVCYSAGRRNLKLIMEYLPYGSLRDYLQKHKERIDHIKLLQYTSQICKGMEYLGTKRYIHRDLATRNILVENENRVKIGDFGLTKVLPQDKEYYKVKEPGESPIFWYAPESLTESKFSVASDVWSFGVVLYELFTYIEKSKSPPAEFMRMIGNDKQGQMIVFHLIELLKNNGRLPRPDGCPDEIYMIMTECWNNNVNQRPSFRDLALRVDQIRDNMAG

[6] = read-out: pKi, JAK1 enzyme assay (converted)
[7] = BEAS-2B, read-out: BEAS-2B pIC50 (cellular potency) (converted)
[8] = IL-13 induced STAT6 phosphorylation, BEAS-2B cells, read-out: BEAS-2B pIC50 (converted)

Chain of JAK1 (P23458 whole entry): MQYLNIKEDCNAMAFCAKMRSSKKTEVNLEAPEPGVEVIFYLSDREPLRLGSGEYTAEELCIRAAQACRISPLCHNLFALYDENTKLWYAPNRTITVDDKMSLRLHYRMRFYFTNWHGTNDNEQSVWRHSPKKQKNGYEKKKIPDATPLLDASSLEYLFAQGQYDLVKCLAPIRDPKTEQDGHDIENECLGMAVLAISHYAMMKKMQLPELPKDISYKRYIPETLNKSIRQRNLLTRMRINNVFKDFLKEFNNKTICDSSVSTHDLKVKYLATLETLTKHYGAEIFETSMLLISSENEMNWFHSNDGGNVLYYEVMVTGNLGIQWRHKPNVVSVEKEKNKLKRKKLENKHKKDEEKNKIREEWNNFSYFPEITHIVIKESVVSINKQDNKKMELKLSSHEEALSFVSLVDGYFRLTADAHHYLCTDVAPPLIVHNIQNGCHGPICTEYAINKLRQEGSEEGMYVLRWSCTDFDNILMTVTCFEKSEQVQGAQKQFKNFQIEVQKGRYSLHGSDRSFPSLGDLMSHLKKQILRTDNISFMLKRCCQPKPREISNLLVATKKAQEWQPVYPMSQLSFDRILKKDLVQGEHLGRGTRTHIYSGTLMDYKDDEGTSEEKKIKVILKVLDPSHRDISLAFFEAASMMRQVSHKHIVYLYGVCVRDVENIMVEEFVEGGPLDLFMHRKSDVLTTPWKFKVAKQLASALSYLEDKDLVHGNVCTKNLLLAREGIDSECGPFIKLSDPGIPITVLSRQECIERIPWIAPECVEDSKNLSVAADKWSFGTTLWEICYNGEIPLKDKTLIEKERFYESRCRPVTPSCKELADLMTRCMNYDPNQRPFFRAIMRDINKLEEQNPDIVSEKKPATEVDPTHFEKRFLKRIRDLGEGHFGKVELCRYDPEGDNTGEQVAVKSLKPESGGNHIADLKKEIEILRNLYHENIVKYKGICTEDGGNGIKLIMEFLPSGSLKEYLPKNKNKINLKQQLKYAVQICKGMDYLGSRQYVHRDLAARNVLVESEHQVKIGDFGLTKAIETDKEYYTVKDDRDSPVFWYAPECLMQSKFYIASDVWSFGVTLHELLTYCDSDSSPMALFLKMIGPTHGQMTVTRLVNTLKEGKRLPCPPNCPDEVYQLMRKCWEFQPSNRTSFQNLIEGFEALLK

Which results are given for `CCc1cc(O)c(F)cc1-c1ccc2c(-c3nc4c([nH]3)CCN(C3CC(C)C3)C4)n[nH]c2c1` (stereo not drawn) [Example C-1, 5-Ethyl-2-fluoro-4-(3-(5-(3-methylcyclobutyl)-4,5,6,7-tetrahydro-1H-imidazo[4,5-c]pyridin-2-yl)-1H-indazol-6-yl)phenol, reference compound]?
fold less potent than the corresponding compound of the invention in the enzyme assay (JAK1): 2 fold; factor by which lung concentration was smaller than that of the corresponding compound of the invention [1]: 36; fold less potent than the corresponding compound of the invention in the BEAS-2B cellular assay [2]: 6 fold

Which “fold less potent than the corresponding compound of the invention in the enzyme assay” value (JAK1) does the source give for `CCc1cc(O)c(F)cc1-c1ccc2c(-c3nc4c([nH]3)CCN(CC3CCCOC3)C4)n[nH]c2c1` (stereo not drawn) [Example C-3, reference compound] here?
Its value is 6 fold.

And the “factor by which lung concentration was smaller than that of the corresponding compound of the invention” value (“factor” for short) [1]?
The value was 13.

And the “fold less potent than the corresponding compound of the invention in the BEAS-2B cellular assay” value [2]?
The value was 3 fold.

Which “weight gain (moisture sorption)” value ([3]; 5% to 90% relative humidity, about 25° C.) does the source give for `CCc1cc(O)c(F)cc1-c1ccc2c(-c3nc4c([nH]3)CCN(C3CCN(C)CC3)C4)n[nH]c2c1` [crystalline hydrate, Crystalline hydrate of 5-ethyl-2-fluoro-4-(3-(5-(1-methylpiperidin-4-yl)-4,5,6,7-tetrahydro-1H-imidazo[4,5-c]pyridin-2-yl)-1H-indazol-6-yl)phenol] here?
The value was “less than 0.12%”.

And the hygroscopicity ([3]; two cycles of sorption and desorption)?
The hygroscopicity was “non-hygroscopic”.

With `CCc1cc(O)c(F)cc1-c1ccc2c(-c3nc4c([nH]3)CCN(CC3CCN3C3COC3)C4)n[nH]c2c1` (stereo not drawn) [Example 8-11] as the compound, how does the Ki (JAK1; [6]) read?
The Ki was 1 to 3.16 nM.

And the IC50 [2, 7]?
Its IC50 is 39.8 to 1000 nM.

Which “fold less potent than the corresponding compound of the invention in the enzyme assay” value (JAK1) does the source give for `CCc1cc(O)c(F)cc1-c1ccc2c(-c3nc4c([nH]3)CCN(CCC(C)C)C4)n[nH]c2c1` [Example C-2, reference compound] here?
Its value is 3 fold.

What about the “factor” value [1] of the same compound?
The value was 52.

What about the “fold less potent than the corresponding compound of the invention in the BEAS-2B cellular assay” value [2] of the same compound?
The value was 6 fold.

Which “Lung to Plasma ratio Assay 4” value [4] does the source give for `CCc1cc(O)c(F)cc1-c1ccc2c(-c3nc4c([nH]3)CCN(C[C@@H]3CCCN3C)C4)n[nH]c2c1` [Example 11, (S)-5-ethyl-2-fluoro-4-(3-(5-((1-methylpyrrolidin-2-yl)methyl)-4,5,6,7-tetrahydro-1H-imidazo[4,5-c]pyridin-2-yl)-1H-indazol-6-yl)phenol] here?
Its value is “A (A denotes a ratio >100)”.

What about the Ki (JAK1; ATP at Km 25 μM, read-out: JAK 1 (pKi) (converted)) of the same compound?
Its Ki is 0.1 to 1 nM.

And the inhibition in vivo at 500 µg/mL [1]?
Its inhibition in vivo at 500 µg/mL is 33 to 50%.

And the Ki (Tyk2)?
Its Ki is 0.316 to 1 nM.

And the Ki (JAK3)?
The Ki was 0.1 to 1 nM.

And the “Percent Inhibition of Alternaria-induced BALF Eosinophils” value [5]?
Its value is 71%.

And the Ki (JAK2)?
Its Ki is under 0.1 nM.

What about the IC50 [2, 8] of the same compound?
Its IC50 is under 10 nM.

Which “fold less potent than the corresponding compound of the invention in the enzyme assay” value (JAK1) does the source give for `CCc1cc(O)c(F)cc1-c1ccc2c(-c3nc4c([nH]3)CCN(C3CCC(C)CC3)C4)n[nH]c2c1` (stereo not drawn) [Example C-4, reference compound] here?
Its value is 2.5 fold.

And the “factor” value [1]?
The value was 23.

What about the “fold less potent than the corresponding compound of the invention in the BEAS-2B cellular assay” value [2] of the same compound?
Its value is 6 fold.

With `CCc1cc(O)c(F)cc1-c1ccc2c(-c3nc4c([nH]3)CCN(CC3CCCN3C3COC3)C4)n[nH]c2c1` (stereo not drawn) [Example 4-8] as the compound, how does the Ki (JAK1; [6]) read?
Its Ki is 1 to 3.16 nM.

What about the IC50 [2, 7] of the same compound?
The IC50 was 39.8 to 1000 nM.

For `CCc1cc(O)c(F)cc1-c1ccc2c(-c3nc4c([nH]3)CCN(C3CN(C(C)C)C3)C4)n[nH]c2c1` [Example 3, 5-ethyl-2-fluoro-4-(3-(5-(1-isopropylazetidin-3-yl)-4,5,6,7-tetrahydro-1H-imidazo[4,5-c]pyridin-2-yl)-1H-indazol-6-yl)phenol], which “Lung to Plasma ratio Assay 4” value [4] is on record?
The value was “C (C denotes a ratio between 10 and 50)”.

What about the inhibition in vivo at 500 µg/mL [1] of the same compound?
The inhibition in vivo at 500 µg/mL was over 65%.

And the Ki (Tyk2)?
Its Ki is 0.1 to 1 nM.

And the Ki (JAK3)?
The Ki was 0.1 to 1 nM.

What about the “Percent Inhibition of Alternaria-induced BALF Eosinophils” value [5] of the same compound?
Its value is 61%.

And the Ki (JAK2)?
The Ki was under 0.1 nM.

And the IC50 [2, 8]?
Its IC50 is under 10 nM.
